Like-named read-outs stand apart in the source and are kept apart here. Each block holds one molecule with its values, some of them ahead of it.
What was measured:
[1] = molecular target: T1, RosA (N,N-8-demethyl-8-amino-D-riboflavin dimethyltransferase) (Streptomyces davaonensis, UniProt K4RFM2); assay: initial rates of RoF formation at […] nm, Henderson plot (tight-binding inhibition); assay type: biochemical
T1 construct: full length, hexahistidine-tagged (pET24a(+)rosA-His6, pFJ02), tag kept, E. coli Rosetta 2 (DE3); 353 amino acids; subunit 38 kDa, native 77 kDa, homodimer

[2] = molecular target: T1, RosA (N,N-8-demethyl-8-amino-D-riboflavin dimethyltransferase); assay: isothermal titration calorimetry; assay type: binding
From the text: isothermal titration calorimetry on RosA (N,N-8-demethyl-8-amino-D-riboflavin dimethyltransferase)

[3] = molecular target: N,N‐8‐demethyl‐8‐amino‐D‐riboflavin dimethyltransferase (RosA), hexahistidine‐tagged (Streptomyces davawensis); assay: SEC; Superdex 200 10/300 GL, 25 °C, 50 mM Tris-HCl pH 8.0 with 100 mM NaCl, 0.5 mL/min, calibrated with standard proteins; native mass about 77 kDa against a subunit mass of 38 kDa
[4] = substrate: C[S+](CC[C@H](N)C(=O)O)C[C@H]1O[C@@H](n2cnc3c(N)ncnc32)[C@H](O)[C@@H]1O; assay: purified protein; conditions: varied AF (20-100 μM), 50 mM Tris/HCl pH 8.0, 100 mM NaCl, 25 °C, random-order bi-bi
[5] = substrate: Cc1cc2nc3c(=O)[nH]c(=O)nc-3n(C[C@H](O)[C@H](O)[C@H](O)CO)c2cc1N; assay: purified protein; assay type: biochemical, Streptomyces davaonensis; conditions: varied SAM (20-250 μM), 50 mM Tris/HCl pH 8.0, 100 mM NaCl, 25 °C, random-order bi-bi

Molecule: Cc1cc2nc3c(=O)[nH]c(=O)nc-3n(C[C@H](O)[C@H](O)[C@H](O)CO)c2cc1N [AF]
Kd ([2]; read-out: AF): 10 ± 1 µM

B1: RosA (N,N-8-demethyl-8-amino-D-riboflavin dimethyltransferase) (Streptomyces davaonensis JCM 4913) (protein)
chain: MRPEPTEHPERTAAQRLYQYNVDLKVAFVLYAVAKLHLPDLLADGPRTTADLAAATGSDPSRLRRLLRAAAGADALREVPEDSFELAPMGDLLRSGHPRSMRGMTTFFAEPDVLAAYGDLVESVRTGVPAFQLRHREPLYDFLARPQHKEVRDEFDAAMVEFGQYFADDFLTSFDFGRFTRFADIGGGRGQFLAGVLTAVPSSTGVLVDGPAVAASAHKFLASQNLTERVEVRIGDFFDVLPTGCDAYVLRGVLEDWADADAVRLLVRIRQAMGDAPEARLLILDSVIGETGELGKVLDLDMLVLVEGEHRTRAQWDDLLARAGFDIVGIHPAGDVWAVIECRGTAG
notes: full length, hexahistidine-tagged (pET24a(+)rosA-His6, pFJ02), tag kept, E. coli Rosetta 2 (DE3); 353 amino acids; subunit 38 kDa, native 77 kDa, homodimer
Km [4]: 70 µM | kcat [4]: 0.001 s⁻¹ | Km [5]: 4 µM | kcat [5]: 0.001 s⁻¹

Results, then the molecule that gave them:

Ki [1]: 27 µM | Kd ([2]; read-out: RoF): 0.8 ± 0.05 µM
Molecule: Cc1cc2nc3c(=O)[nH]c(=O)nc-3n(C[C@H](O)[C@H](O)[C@H](O)CO)c2cc1N(C)C [RoF]

Ki [1]: 7 µM | Kd ([2]; read-out: SAH): 2 ± 0.1 µM
Molecule: Nc1ncnc2c1ncn2[C@@H]1O[C@H](CSCC[C@H](N)C(=O)O)[C@@H](O)[C@H]1O [SAH]

stoichiometry N [3]: 2
Molecule: N,N‐8‐demethyl‐8‐amino‐D‐riboflavin dimethyltransferase (RosA), hexahistidine‐tagged (enzyme)

Kd [2]: 22 ± 2 µM
Molecule: C[S+](CC[C@H](N)C(=O)O)C[C@H]1O[C@@H](n2cnc3c(N)ncnc32)[C@H](O)[C@@H]1O (some centres unmarked) [SAM]
